Assay results published in US20020022647A1, “2-(4-bromo or 4-iodo phenylamino) benzoic acid derivatives” (priority 1997, published 2002).

Target: GST-MEK (p45MEK) and GST-MAPK (p44MAP kinase) (Homo sapiens, UniProt Q02750)
Test: Cascade assay for inhibitors of the MAP kinase pathway (In Vitro)
Type: biochemical
Conditions: incorporation of 32P into myelin basic protein
Procedure: Cascade Assay for Inhibitors of the MAP Kinase Pathway
Incorporation of ^32P into myelin basic protein (MBP) was assayed in the presence of a glutathione S-transferase fusion protein containing p44MAP kinase (GST-MAPK) and a glutathione S-transferase fusion protein containing p45MEK (GST-MEK). The assay solution contained 20 mM HEPES, pH 7.4, 10 mM MgCl2, 1 mM MnCl2, 1 mM EGTA, 50 μM [γ-^32P]ATP, 10 μg GST-MEK0.5 μg GST-MAPK and 40 μg MBP in a final volume of 100 μL. Reactions were stopped after 20 minutes by addition of trichloroacetic acid and filtered through a GF/C filter mat. ^32P retained on the filter mat was determined using a 1205 Betaplate. Compounds were assessed at 10 μM for ability to inhibit incorporation of ^32P.
To ascertain whether compounds were inhibiting GST-MEK or GST MAPK, two additional protocols were employed. In the first protocol, compounds were added to tubes containing GST-MEK, followed by addition of GST-MAPK, MBP and [γ-^32P]ATP. In the second protocol, compounds were added to tubes containing both GST-MEK and GST-MAPK, followed by MBP and [γ-^32P]ATP.

GST-MEK (p45MEK) and GST-MAPK (p44MAP kinase), sequence (Q02750 whole entry): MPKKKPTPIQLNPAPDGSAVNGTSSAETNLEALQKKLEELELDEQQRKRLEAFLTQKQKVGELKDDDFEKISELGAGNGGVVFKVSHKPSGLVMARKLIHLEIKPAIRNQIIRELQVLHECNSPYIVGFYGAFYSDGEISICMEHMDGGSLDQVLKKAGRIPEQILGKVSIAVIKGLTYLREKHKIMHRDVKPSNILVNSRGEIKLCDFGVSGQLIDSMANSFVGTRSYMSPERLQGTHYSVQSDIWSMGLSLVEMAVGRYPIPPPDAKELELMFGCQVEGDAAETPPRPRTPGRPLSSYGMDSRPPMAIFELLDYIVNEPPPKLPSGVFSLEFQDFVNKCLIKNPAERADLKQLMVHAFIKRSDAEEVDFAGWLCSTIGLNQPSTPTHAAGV

Structure (SMILES) | IC50 [µM]
Cc1cc(I)ccc1Nc1cc(F)ccc1C(=O)O [Example 1, 4-Fluoro-2-(4-iodo-2-methylphenylamino)benzoic acid] | 0.019
Cc1cc(I)ccc1Nc1c(C(=O)O)cc(F)c(F)c1F [Example 2, 3,4,5-Trifluoro-2-(4-iodo-2-methyl-phenylamino)-benzoic acid] | 0.014
Cc1cc(I)ccc1Nc1c(C(=O)O)ccc(F)c1F [Example 3, 3,4-Difluoro-2-(4-iodo-2-methyl-phenylamino)-benzoic acid] | 0.0111
Cc1cc(I)ccc1Nc1c(C(=O)O)cc(Br)c(F)c1F [Example 4, 5-Bromo-3,4-difluoro-2-(4-iodo-2-methyl-phenylamino)-benzoic acid] | 0.005
O=C(O)c1cc(Cl)ccc1Nc1ccc(I)cc1Cl [Example 5, 5-Chloro-2-(2-chloro-4-iodo-phenylamino)--benzoic acid] | 0.066
Cc1cc(I)ccc1Nc1ccc(Cl)cc1C(=O)O [Example 6, 5-Chloro-2-(4-iodo-2-methyl-phenylamino)-benzoic acid] | 0.071
Cc1cc(I)ccc1Nc1ccc(Cl)cc1C(=O)[O-].[Na+] [Example 7, Sodium 5-Chloro-2-(4-iodo-2-methyl-phenylamino)-benzoate] | 0.072
Cc1cc(I)ccc1Nc1ccc(Br)cc1C(=O)O [Example 8, 5-Bromo-2-(4-iodo-2-methyl-phenylamino)-benzoic acid] | 0.086
O=C(O)c1cc([N+](=O)[O-])ccc1Nc1ccc(I)cc1Cl [Example 9, 2-(2-Chloro-4-iodo-phenylamino)-5-nitro-benzoic acid] | 0.097
Cc1c(Nc2cc(F)ccc2C(=O)O)ccc(I)c1F [Example 10, 4-Fluoro-2-(3-fluoro-4-iodo-2-methyl-phenylamino)-benzoic acid] | 0.101
Cc1cc(I)ccc1Nc1ccc([N+](=O)[O-])cc1C(=O)O [Example 11, 2-(4-Iodo-2-methyl-phenylamino)-5-nitro-benzoic acid] | 0.128
O=C(O)c1cc([N+](=O)[O-])ccc1Nc1ccc(I)cc1F [Example 12, 2-(2-Fluoro-4-iodo-phenylamino)-5-nitro-benzoic acid] | 0.135
Cc1cc(Br)ccc1Nc1cc(F)ccc1C(=O)O [Example 13, 2-(4-Bromo-2-methyl-phenylamino)-4-fluoro-benzoic acid] | 0.178
O=C(O)c1cc([N+](=O)[O-])ccc1Nc1ccc(I)cc1Br [Example 14, 2-(2-Bromo-4-iodo-phenylamino)-5-nitro-benzoic acid] | 0.179
Cc1cc(Br)ccc1Nc1c(C(=O)O)ccc(F)c1F [Example 15, 2-(4-Bromo-2-methyl-phenylamino)-3,4-difluoro-benzoic acid] | 0.194
Cc1cc(I)ccc1Nc1c(F)cccc1C(=O)O [Example 16, 3-Fluoro-2-(4-iodo-2-methyl-phenylamino)-benzoic acid] | 0.323
COc1cc(I)ccc1Nc1c(C(=O)O)ccc(F)c1F [Example 17, 3,4-Difluoro-2-(4-iodo-2-methoxy-phenylamino)-benzoic acid] | 0.434
Cc1cc(I)ccc1Nc1cc(Cl)ccc1C(=O)O [Example 18, 4-Chloro-2-(4-iodo-2-methyl-phenylamino)-benzoic acid] | 0.446
Cc1cc(I)ccc1Nc1ccccc1C(=O)O [Example 19, 2-(4-Iodo-2-methyl-phenylamino)-benzoic acid] | 0.524
Cc1cc(I)ccc1Nc1ccc(F)cc1C(=O)O [Example 20, 5-Fluoro-2-(4-iodo-2-methyl-phenylamino)-benzoic acid] | 0.557
Cc1cc(I)ccc1Nc1ccc(I)cc1C(=O)O [Example 21, 5-Iodo-2-(4-iodo-2-methyl-phenylamino)-benzoic acid] | 0.569
Cc1cc(I)ccc1Nc1c(F)cc(C(=O)O)c(F)c1F [Example 22, 2,3,5-Trifluoro-4-(4-iodo-2-methyl-phenylamino)-benzoic acid] | 1.581
Cc1c(Nc2cc(F)ccc2C(=O)O)ccc(I)c1Cl [Example 23, 4-Fluoro-2-(3-chloro-4-iodo-2-methyl-phenylamino) benzoic acid] | 1.588
COc1ccc(Nc2ccc(I)cc2)c(C(=O)O)c1 [Example 24, 2-(4-Iodo-phenylamino)-5-methoxy-benzoic acid] | 1.944
O=C(O)c1cccc(Cl)c1Nc1ccc(I)cc1Cl [Example 25, 3-Chloro-2-(2-chloro-4-iodo-phenylamino)-benzoic acid] | 2.363

Structure (SMILES) | IC50 [µM]
Cc1cc(I)ccc1Nc1cccc(F)c1C(=O)O [Example 26, 2-Fluoro-6-(4-iodo-2-methyl-phenylamino)-benzoic acid] | 2.609
Cc1ccc(Nc2ccc(I)cc2C)c(C(=O)O)c1 [Example 28, 5-Methyl-2-(4-iodo-2-methyl-phenylamino)-benzoic acid] | 3.670
Cc1cc(I)ccc1Nc1cccc(Cl)c1C(=O)O [Example 29, 2-Chloro-6-(4-iodo-2-methyl-phenylamino)-benzoic acid] | 5.331
COc1ccc(NC(=O)c2ccc(OC)c([N+](=O)[O-])c2)cc1 [Example 32, 4-Methoxy-N-(4-methoxy-phenyl)-3-nitro-benzamide] | 0.028
Cc1cc(I)ccc1Nc1cc(F)ccc1C(N)=O [Example 33, 4-Fluoro-2-(4-iodo-2-methyl-phenylamino)-benzaniide] | 0.052
CNC(=O)c1ccc(F)cc1Nc1ccc(I)cc1C [Example 34] | 0.098
CCNC(=O)c1ccc(F)cc1Nc1ccc(I)cc1C [Example 35, N-Ethyl-4-fluoro-2-(4-iodo-2-methyl-phenylamino)-benzamide] | 0.121
Cc1cc(I)ccc1Nc1cc(F)ccc1C(=O)N(C)C [Example 36, 4-Fluoro-2-(4-iodo-2-methyl-phenylamino)-N,N-dimethyl-benzamide] | 0.129
Cc1cc(I)ccc1Nc1cc(F)ccc1C(=O)Nc1nnn[nH]1 [Example 37, 4-Fluoro-2-(4-iodo-2-methyl-phenylamino)-N-(1H-tetrazol-5-yl)-benzamide] | 0.237
Cc1cc(I)ccc1Nc1ccc(Br)cc1C(N)=O [Example 38, 5-Bromo-2-(4-iodo-2-methyl-phenylamino)-benzamide] | 0.412
Cc1cc(I)ccc1Nc1ccc(Cl)cc1C(=O)N(C)C [Example 39, 5-Chloro-2-(4-iodo-2-methyl-phenylamino)-N,N-dimethyl-benzamide] | 0.497
CCCNC(=O)c1ccc(F)cc1Nc1ccc(I)cc1C [Example 41, 4-Fluoro-2-(4-iodo-2-methyl-phenylamino)-N-propyl-benzamide] | 0.872
Cc1cc(I)ccc1Nc1ccc(Br)cc1C(=O)NCCO [Example 42, 5-Bromo-N-(2-hydroxy-ethyl)-2-(4-iodo-2-methyl-phenylamino)-benzamide] | 0.920
Cc1cc(I)ccc1Nc1cc(F)ccc1C(=O)NCCCN1CCN(CCO)CC1 [Example 44, 4-Fluoro-N-{3-[4-(2-hydroxy-ethyl)-piperazin-1-yl]-propyl}-2-(4-iodo-2-methyl-phenylamino)-benzamide] | 1.481
CCN(CC)C(=O)c1cc([N+](=O)[O-])ccc1Nc1ccc(I)cc1C [Example 45, N,N-Diethyl-2-(4-iodo-2-methyl-phenylamino)-5-nitro-benzamide] | 1.755
CCCCNC(=O)c1ccc(F)cc1Nc1ccc(I)cc1C [Example 46, N-Butyl-4-fluoro-2-(4-iodo-2-methyl-phenylamino)-benzamide] | 1.814
CCN(CC)C(=O)c1cc(Cl)ccc1Nc1ccc(I)cc1C [Example 47, 5-Chloro-N,N-diethyl-2-(4-iodo-2-methyl-phenylamino)-benzamide] | 1.911
Cc1cc(I)ccc1Nc1ccc(Br)cc1C(=O)N(C)C [Example 48] | 1.945
Cc1cc(I)ccc1Nc1ccc([N+](=O)[O-])cc1CO [Example 51, [2-(4-Iodo-2-methyl-phenylamino)-5-nitro-phenyl]-methanol] | 0.887
Cc1cc(I)ccc1Nc1ccc(Br)cc1CO [Example 52, [5-Bromo-2-(4-iodo-2-methyl-phenylamino)-phenyl]-methanol] | 2.346
Cc1cc(I)ccc1Nc1c(C(=O)NCC(O)CO)ccc(F)c1F (stereo not shown) [Example 54, N-(2,3-Dihydroxy-propyl)-3,4-difluoro-2-(4-iodo-2-methyl-phenylamino)-benzamide] | 0.158
Cc1cc(I)ccc1Nc1c(C(=O)NCCN2CCCCC2)cc(Br)c(F)c1F [Example 55, 5-Bromo-3,4-difluoro-2-(4-iodo-2-methyl-phenylamino)-N-(2-piperidin-1-yl-ethyl)-benzamide] | 0.114
Cc1cc(I)ccc1Nc1cc(F)ccc1C(=O)NCC(O)CO (stereo not shown) [Example 57, N-(2,3-Dihydroxy-propyl)-4-fluoro-2-(4-iodo-2-methyl-phenylamino)-benzamide] | 0.399
Cc1cc(I)ccc1Nc1ccc(F)cc1C(=O)NCCCN1CCN(CCO)CC1 [Example 90, 5-Fluoro-N-{3-[4-(2-hydroxy-ethyl)-piperazin-1-yl]-propyl}-2-(4-iodo-2-methyl-phenylamino)-benzamide] | 0.604
